The source of these data is patent publication US7781439B2, “Pyrazolopyrimidines” (Bayer CropScience AG, priority 2005, dated 2010).

One series relates to SW620 cells. Briefly: LIVE/DEAD cytotoxicity assay, inhibition of cell proliferation, SW620. It is filed as cell-based, human. As to conditions: for GI50: Homo sapiens, read-out: log GI50 values (M), SW620 cells (converted). Here is the method:
(§1) Compounds of the present invention were tested for a possible cytotoxic or proliferation-inhibiting activity on the human tumour cell lines HeLa, SW620 and A375 (all from ATCC, American Type Culture Collection). To this end, the cells were plated in microtitre plates from Greiner (manufacturer No. 781092) at a cell density of 1000 cells/microtitre plate well and cultivated in cell culture medium at 37° C. under a 5% carbon dioxide atmosphere. Cell culture media and additives were purchased from Invitrogen and the foetal calf serum from Biochrom. The cell culture media for HeLa and A375 cells were used as stated by ATCC (HeLa: MEM, order No. 10370-047, with 1% sodium bicarbonate, 1% non-essential amino acids, 1% sodium pyruvate, 10% foetal calf serum, 0.1% gentamycin; A375: DMEM, order No. 41965-039, 2% sodium bicarbonate, 1% L-Glutamax, 10% foetal calf serum, 0.1% gentamycin). The culture medium for the SW620 cells consisted of DMEM, order No. 41965-039, 1% non-essential amino acids, 10% foetal calf serum, 0.1% gentamycin.
(§2) 24 hours after the cells had been plated in the microtitre plates, various concentrations of at most 100 μM down to a minimum concentration of 5 nM of the test compounds were added to the cells. Stock solutions of the test compounds (10 mM) were prepared in DMSO and stored at −20° C. For the cytotoxicity tests, the test compounds were diluted in the appropriate cell culture medium.
(§3) After a further 48 hours of incubation, the cells were washed with medium and analysed with the aid of a two-colour fluorescence cytotoxicity/viability test (LIVE/DEAD Viability/Cytotoxicity ASSAY Kit from Molecular Probes, order No. L-3224), according to the instructions of the manufacturer. To this end, the medium was aspirated and in each case 30 μl of LIVE/DEAD reagent per microtitre plate well were added to the cells, which were then incubated for 30 minutes. The cells were then washed with PBS (phosphate-buffered saline). The number of live cells was analysed by measuring the green fluorescence of the live dye calcein-AM as a component of the LIVE/DEAD reagent using a fluorescence plate reader (Flexstation, from Molecular Devices) at an excitation wavelength of 485 nm and an emission wavelength of 525 nm (Oral et al. 1998). Cells only with cell culture medium, without added test compounds, were treated in parallel and analysed as growth controls. The reference compounds used for anti-tumour agents having a cytotoxic or proliferation-inhibiting action were colchicine (from Merck/Calbiochem, order No 234115) and Taxol (baccatin III N-benzyl-b-phenylisoserine ester, from Merck/Calbiochem, order No. 580555) (Schiff and Horwitz 1980; Holmes et al., 1991). The cytotoxic effects of the test compounds were expressed as logarithmic GI50 values ((growth)-inhibiting logarithmic concentration value at which a cell growth reduced by 50% compared to the control without test compounds was measured; Xia et al., 2001; Smith et al., 2005).

The nature of a further series: log P determination. It is filed as physicochemical.
In another series the test system is HeLa cells. Briefly: LIVE/DEAD cytotoxicity assay, inhibition of cell proliferation, HeLa. It is filed as cell-based, human. As to conditions: for GI50: Homo sapiens, read-out: log GI50 values (M), HeLa cells (converted). As for the experimental part: as §1, §2, §3
For another series, the system named is A375 cells. The series can be described thus: LIVE/DEAD cytotoxicity assay, inhibition of cell proliferation, A375. As to conditions: for GI50: Homo sapiens, read-out: log GI50 values (M), A375 cells (converted). It is filed as cell-based, human. Here is the method:
as §1, §2, §3

[1] abbreviates: SW620 cells, 48 hours incubation, calcein-AM fluorescence.
The mark [2] stands for this setting: values marked *, no footnote carries the single asterisk, general footnote: HPLC gradient method, acetonitrile/0.1% aqueous phosphoric acid.
Where [3] appears, read: HeLa cells, 48 hours incubation, calcein-AM fluorescence.
Where [4] appears, read: A375 cells, 48 hours incubation, calcein-AM fluorescence.
Setting [5] is: HPLC, gradient method, acetonitrile/0.1% aqueous phosphoric acid (EEC Directive 79/831 Annex V. A8).
The mark [6] stands for this setting: EEC Directive 79/831 Annex V. A8 by HPLC (gradient method, acetonitrile/0.1% aqueous phosphoric acid).

Like-named read-outs stand apart in the source and are kept apart here. Marks after values point to notes of the source that are not given here. Where only a bound is given, the exact number is not on record here.

`C[C@H](Nc1c(-c2c(F)cc(F)cc2Cl)c(Cl)nc2c(C(=O)NS(C)(=O)=O)cnn12)C(F)(F)F` [Example 117]: the “log GI50 values (M), SW620 cells” value with SW620 cells (setting [1]) is on record as 6.6 M. For the same molecule, the log p in “log P determination” (setting [2]) is listed as 3.56*. In addition, the “log GI50 values (M), HeLa cells” value with HeLa cells (setting [3]) was 6.8 M. Besides, the “log GI50 values (M), A375 cells” value with A375 cells (setting [4]) is 6.6 M. Take `CC(C)[C@@H](C)Nc1c(-c2c(F)cc(F)cc2F)c(Cl)nc2c(C(=O)NS(C)(=O)=O)cnn12` [Example 177]: the “log GI50 values (M), SW620 cells” value with SW620 cells (setting [1]) is 6.7 M. In “log P determination” (setting [2]), the log p is 3.85*. The “log GI50 values (M), HeLa cells” value with HeLa cells (setting [3]) is on record as greater than 8 M. Moreover, the “log GI50 values (M), A375 cells” value in the series on A375 cells (setting [4]) is listed as 8.1 M. In the case of `CC(C)Nc1c(-c2c(F)cc(F)cc2F)c(Cl)nc2c(C(=O)NS(C)(=O)=O)cnn12` [Example 345], the “log GI50 values (M), SW620 cells” value in the series with SW620 cells (setting [1]) is reported as 6.4 M. Further, the log p in “log P determination” (values marked *, HPLC, gradient method, acetonitrile/0.1% aqueous phosphoric acid, EEC Directive 79/831 Annex V. A8) was 3.24*. The “log GI50 values (M), HeLa cells” value with HeLa cells (setting [3]) is reported as 6.6 M. Moreover, in the series with A375 cells (setting [4]), the “log GI50 values (M), A375 cells” value is 6.3 M. Consider `CC(=O)O[C@H]1C(=O)[C@@]2(C)[C@H]([C@H](OC(=O)c3ccccc3)[C@]3(O)C[C@H](OC(=O)[C@H](O)[C@@H](NC(=O)c4ccccc4)c4ccccc4)C(C)=C1C3(C)C)[C@]1(OC(C)=O)CO[C@@H]1C[C@@H]2O` [Taxol, reference compound], for which the GI50 (in general, the concentration giving 50% growth inhibition) in the series with SW620 cells (SW-620, SW620 cells, 48 hours incubation, calcein-AM fluorescence) was 1.26e-07 M; in the series on HeLa cells (setting [3]) it was 1.58e-08 M; in the series on A375 cells (A-375, A375 cells, 48 hours incubation, calcein-AM fluorescence), 2e-07 M. For the molecule `COc1cc2c(c(OC)c1OC)-c1ccc(OC)c(=O)cc1[C@@H](NC(C)=O)CC2` [colchicine, reference compound], the GI50 is 3.16e-08 M with SW620 cells (SW-620, 48 h); 1.58e-08 M with HeLa cells (HeLa, 48 h); 2e-08 M in the series on A375 cells (A-375, 48 h). In turn, `CC(C)C(C)Nc1c(-c2ccc(F)cc2F)c(Cl)nc2c(C(=O)NN3CCOCC3)cnn12` (stereo not shown) [compound 1180] gave a log p in “log P determination” (setting [5]) of 3.46.

Regarding `Cc1ccc(-c2c(Cl)nc3c(C(=O)NN4CCOCC4)cnn3c2NC(C)C(C)(C)C)c(Cl)c1` (stereo not shown) [compound 1181], the log p in the series “log P determination” (setting [5]) was 4.41. The same measure, in the same setting: in the case of `CC(Nc1c(-c2ccc(F)cc2F)c(Cl)nc2c(C(=O)NN3CCOCC3)cnn12)C(C)(C)C` (stereo not shown) [compound 1182] it was 3.76. In turn, `Cc1ccsc1-c1c(Cl)nc2c(C(=O)NN3CCOCC3)cnn2c1NC(C)C(C)C` (stereo not shown) [compound 1183] displayed a log p in “log P determination” (setting [5]) of 3.63.

Molecule `CC(C)C(C)Nc1c(-c2ccc(F)cc2Cl)c(Cl)nc2c(C(=O)Nc3ccn(C)n3)cnn12` (stereo not shown) [compound 1184] came in with a log p in the series “log P determination” (setting [6]) of 4.35. With `CC(Nc1c(-c2ccc(F)cc2Cl)c(Cl)nc2c(C(=O)Nc3ccn(C)n3)cnn12)C(C)(C)C` (stereo not shown) [compound 1185], in the series “log P determination” (setting [6]), the log p was 4.69. In the series “log P determination” (setting [6]), `CC(C)C(C)Nc1c(-c2ccc(F)cc2Cl)c(Cl)nc2c(C(=O)Nc3ccnn3C)cnn12` (stereo not shown) [compound 1186] yielded a log p of 4.18. For `CC(Nc1c(-c2ccc(F)cc2Cl)c(Cl)nc2c(C(=O)Nc3cnn(C)c3)cnn12)C(C)(C)C` (stereo not shown) [compound 1187], the log p in “log P determination” (setting [6]) is reported as 4.26.

In the series “log P determination” (setting [6]), `CC(C)C(C)Nc1c(-c2ccc(F)cc2Cl)c(Cl)nc2c(C(=O)Nc3ncn(C)n3)cnn12` (stereo not shown) [compound 1188] came in with a log p of 3.62. Same read-out and setting: under `CC(C)C(C)Nc1c(-c2ccc(F)cc2Cl)c(Cl)nc2c(C(=O)Nc3cnn(C)c3)cnn12` (stereo not shown) [compound 1189] stands 3.95; under `CC(C)C(C)Nc1c(-c2ccc(F)cc2F)c(Cl)nc2c(C(=O)NS(C)(=O)=O)cnn12` (stereo not shown) [compound 1190], 3.87; under `CC(Nc1c(-c2ccc(F)cc2Cl)c(Cl)nc2c(C(=O)Nc3ncn(C)n3)cnn12)C(C)(C)C` (stereo not shown) [compound 1191], 3.91. Still for that read-out and setting: under `CC1CCN(c2c(-c3ccc(F)cc3Cl)c(Cl)nc3c(C(=O)Nc4ncn(C)n4)cnn23)CC1` [compound 1192] stands 3.89; under `CC1CCN(c2c(-c3ccc(F)cc3Cl)c(Cl)nc3c(C(=O)Nc4ccnn4C)cnn23)CC1` [compound 1193], 4.47; under `Cc1ccc(-c2c(Cl)nc3c(C(=O)NS(C)(=O)=O)cnn3c2NC(C)C(C)(C)C)c(Cl)c1` (stereo not shown) [compound 1194], 4.76. As to `CC1CCN(c2c(-c3ccc(F)cc3Cl)c(Cl)nc3c(C(=O)Nc4ccn(C)n4)cnn23)CC1` [compound 1195], the log p in “log P determination” (setting [6]) turned out to be 4.66. Take `CC1CCN(c2c(-c3ccc(F)cc3Cl)c(Cl)nc3c(C(=O)Nc4cnn(C)c4)cnn23)CC1` [compound 1196]: in the series “log P determination” (setting [6]), the log p came to 4.31. `CC1CCN(c2c(-c3ccc(F)cc3Cl)c(Cl)nc3c(C(=O)Nc4ncn[nH]4)cnn23)CC1` [compound 1197] displayed a log p in the series “log P determination” (setting [6]) of 4.11. `COC(=O)c1cn[nH]c1N` [methyl 5-amino-1H-pyrazole-4-carboxylate]: the log p in “log P determination” (HPLC (gradient method), starting materials and intermediates, log P / log P*, read-out: log P) is -0.07.
